Laboratory results: patent publication US20060058504A1, “Peptides capable of inducing attraction to the axonal growth and their use for treating neurodegenerative diseases” (Centre National de la Recherche Scientific (CNRS), priority 2002, published 2006)
Changes are numbered by the printed parent chain. In names and notes the source's numbering stands. Entries after “also recorded” stand apart in the source; their conditions may differ. Blank lines part the entries; values can stand above or below the molecule they belong to.

Key:
[1] = test system: cortical axons repelled by Sema3A secreted from the ventral spinal cord; experiment: Co-culture of cortical slices and ventral spinal cord explants (axon guidance response to Sema3A); format: cell-based, mice; settings: for Axonal length, Away / Number of axons, Away / Axonal length, Towards / Number of axons, Towards: Ctx/vSC co-culture, L1Fc 3 μg/ml, ODQ 10^−5 M; for Axonal length, Away / Number of axons, Away: growth away from spinal cord explant; for Axonal length, Towards / Number of axons, Towards: growth towards spinal cord explant; for effect of inhibitor on L1Fc-induced switch of Sema3A repulsion to attraction: inhibitor combined with L1Fc 3 μg/ml; for guidance index: qualitative index from −2 (repulsion) to +2 (attraction), L1Fc chimeras 3 μg/ml, ODQ 10^−5M; for conversion of Sema3A-induced chemorepulsion into attraction by peptide: peptide at 10^−6M; for switching of Sema3A repulsion to attraction by L1Fc chimera: chimera 3 μg/ml in culture medium
Experimental: Blocks of cortex were dissected from P0 (postnatal day 0) to P2 mice and cut into 250 μm thick slices with a McIlwain tissue chopper. The ventral part of the cervical spinal cord was dissected and cut into 250 μm thick slices. Co-culture of cortical slices and ventral spinal cord explants were performed in a three-dimensional plasma clot, as described previously (Castellani et al., 2000). Cortical slices were oriented in the plasma clot as indicated in FIG. 1B to give to axons equivalent chances to be deflected away or towards the spinal cord explant. Purified wild-type or mutant L1Fc chimeras were added to the culture medium (3 μg/ml). Inhibitors of the guanylyl cyclase (ODQ, 10^−5 M, Sigma) and NOS (7NI, […], Sigma) were added to the culture medium, either alone or with wild-type L1Fc (3 μg/ml). After one or two days in vitro (DIV), the cultures were fixed with 4% paraformaldehyde (PFA) and analyzed by phase contrast microscopy (Axiovert 35-M, Zeiss). A qualitative guidance index was attributed to the co-cultures, to assess the degree of repulsive (negative values) or attractive (positive values) effects (Castellani et al., 2000). The index ranged from −2 (when most fibers grew away from the spinal cord explant) to +2 (when most fibers grew towards the explant), with intermediate situations (index of −1 and +1 for moderate guidance effects). An index of zero was attributed to the cultures showing no preferential growth. Quantitative analysis of axon length and number of axons growing from cortical slices was performed as described previously (Castellani et al., 2000). A proximal and a distal region, each of them covering a 600 μm-piece of cortical tissue were determined for each culture. All fibers extending from these two regions were counted and the length of the three longest fibers was measured, using computer analysis software (Visiolab 2000, Biocom). Immunofluorescence labeling of axons was performed using the mouse anti-phosphorylated neurofilament antibody SMI31 (Stemberger and Meyer Inc.), and Texas red-conjugated secondary anti-mouse antibody (see result obtained for number of axons and axonal length in the following tables 1 and 2).
It has been previously developed an assay system using explants of ventral spinal cord co-cultured with cortical axons in order to determine the factors involved in axonal repulsion and attraction (Castellani et al., 2000). Using this system we have shown that Sema3A secreted from the ventral spinal cord repels cortical axons. In the presence of soluble wild-type L1Fc chimeric protein however, repulsion is switched to attraction (Castellani et al., […]). In the present study, we aimed to identify the L1 interactions underlying the switching process. As Ig domains have been implicated in binding of Ig CAMs to many of their ligands (Brümmendorf and Rathjen, 1996) we hypothesized that they would also be required for L1 Fc-mediated switching. […] L1 Fc chimeras containing pathological missense mutations affecting specific Ig domains (De Angelis et al., 1999 and FIGS. 1A, 1B) were assessed for their ability to reverse Sema3A repulsion to attraction.

[2] = test system: L1; settings: mutant bound to itself; cited from earlier work
[3] = molecular target: T1, full length human L1 (Homo sapiens, UniProt P32004); experiment: Binding of L1Fc chimeras to COS cells expressing wild-type L1 (immunofluorescence)
T1 construct: transiently transfected with expression vectors encoding full length human L1; expressed in transfected cells; host or cells: COS7
Experimental: (§1) The mutant L1Fc chimeras were produced and purified as described previously (De Angelis et al., 1999). Briefly, COS-7 cells were transiently transfected with 10 μg DNA per 150 mm culture dish, the soluble Fc chimeric protein was allowed to accumulate in the media for 6 days and was recovered and purified by protein A-Sepharose affinity chromatography. In the binding experiments, L1Fcs were cross-linked to anti-human Fc antibodies (50 μg/ml, Jackson Immunoresearch) for 1 hr at 37° C. Binding detection to NP-1 requested concentrations of L1Fcs 10 folds higher than L1. Antibody conjugated L1-Fc protein was then incubated with monolayers of COS7 cells transiently transfected with expression vectors encoding full length human L1 or myc-tagged NP-1 where the cytoplasmic domain is deleted (gift of J. Raper, 2000 and Renzi et al., 1999). Following incubation, the cells were fixed with 4% PFA, and processed for double-immunofluorescence detection. NP-1 was detected using a mouse anti-c myc antibody (clone 9E10, Sigma) and L1 using a rat monoclonal anti-L1 antibody. Secondary antibody anti-c-myc (Texas-red conjugated anti-mouse antibodies) was used to detect NP-1, anti-L1 (Texas red conjugated anti-rat antibodies) to detect L1, and anti-Fc (FITC conjugated anti-rabbit antibodies) to detect bound L1Fc chimeras. After secondary antibody incubation, the cells were washed with PBS and mounted in Mowiol (Calbiochem).
Thus, Ig CAMs F3 and TAG-1 (the rodent homologue of axonin-1) ate unlikely to be axonal receptors for L1Fc in the reversion process. […] In the present study however, mutated L1Fc proteins were required to interact with wild-type L1 expressed on growth cones. To formally exclude a role for homophilic binding of L1 in the initiation of the reversion process, it was therefore necessary to examine whether homophilic binding of the mutated L1Fc chimeras to wild-type L1 was also disrupted. Mutated L1Fcs were therefore incubated with COS7 cells transfected with full-length wild-type L1 cDNA and binding was assessed by immunofluorescence. In parallel, homophilic binding of mutant/mutant and mutant/wild-type L1Fcs was compared in a two-color FACS aggregation assay, allowing a quantitative assessment to be made (see Methods). […] Similarly, in the two color FACS assay homophilic binding was restored to 74.4% and 90.5% of wild-type levels for A426D and H210Q respectively (FIG. 2B). […] This mutation however still promoted the L1 Fc induced switching of Sema3A repulsion to attraction in the co-culture assay. Thus, the ability of L1Fc to switch Sema3A repulsion is not dependent on homophilic binding. Consequently, the trans interaction of L1Fc with L1 in the receptor complex is not required for the change in growth cone responsiveness to Sema3A.

[4] = test system: NP-1; experiment: Binding of L1Fc chimeras to NP-1 expressing COS7 cells (immunofluorescence)
Experimental: as §1
Next, we examined the ability of the mutant L1 Fc chimeras to bind NP-1. COS7 cells were transfected with a vector encoding the extracellular and transmembrane domains of NP-1 fused to a myc tag (ANP-1, Renzi et al., J. Neurosci., 15:7870-7880, 1999), and incubated with the mutant L1Fc chimeras. Binding was detected by immunofluorescence. […] Binding of L120V, G121S and A426D L1Fcs to NP-1 is illustrated in FIG. 3.

[5] = test system: F3, axonin-1 and TAX-1; settings: F3, axonin-1 (and TAX-1 where stated); cited from earlier work

T1 sequence (P32004 20-1257): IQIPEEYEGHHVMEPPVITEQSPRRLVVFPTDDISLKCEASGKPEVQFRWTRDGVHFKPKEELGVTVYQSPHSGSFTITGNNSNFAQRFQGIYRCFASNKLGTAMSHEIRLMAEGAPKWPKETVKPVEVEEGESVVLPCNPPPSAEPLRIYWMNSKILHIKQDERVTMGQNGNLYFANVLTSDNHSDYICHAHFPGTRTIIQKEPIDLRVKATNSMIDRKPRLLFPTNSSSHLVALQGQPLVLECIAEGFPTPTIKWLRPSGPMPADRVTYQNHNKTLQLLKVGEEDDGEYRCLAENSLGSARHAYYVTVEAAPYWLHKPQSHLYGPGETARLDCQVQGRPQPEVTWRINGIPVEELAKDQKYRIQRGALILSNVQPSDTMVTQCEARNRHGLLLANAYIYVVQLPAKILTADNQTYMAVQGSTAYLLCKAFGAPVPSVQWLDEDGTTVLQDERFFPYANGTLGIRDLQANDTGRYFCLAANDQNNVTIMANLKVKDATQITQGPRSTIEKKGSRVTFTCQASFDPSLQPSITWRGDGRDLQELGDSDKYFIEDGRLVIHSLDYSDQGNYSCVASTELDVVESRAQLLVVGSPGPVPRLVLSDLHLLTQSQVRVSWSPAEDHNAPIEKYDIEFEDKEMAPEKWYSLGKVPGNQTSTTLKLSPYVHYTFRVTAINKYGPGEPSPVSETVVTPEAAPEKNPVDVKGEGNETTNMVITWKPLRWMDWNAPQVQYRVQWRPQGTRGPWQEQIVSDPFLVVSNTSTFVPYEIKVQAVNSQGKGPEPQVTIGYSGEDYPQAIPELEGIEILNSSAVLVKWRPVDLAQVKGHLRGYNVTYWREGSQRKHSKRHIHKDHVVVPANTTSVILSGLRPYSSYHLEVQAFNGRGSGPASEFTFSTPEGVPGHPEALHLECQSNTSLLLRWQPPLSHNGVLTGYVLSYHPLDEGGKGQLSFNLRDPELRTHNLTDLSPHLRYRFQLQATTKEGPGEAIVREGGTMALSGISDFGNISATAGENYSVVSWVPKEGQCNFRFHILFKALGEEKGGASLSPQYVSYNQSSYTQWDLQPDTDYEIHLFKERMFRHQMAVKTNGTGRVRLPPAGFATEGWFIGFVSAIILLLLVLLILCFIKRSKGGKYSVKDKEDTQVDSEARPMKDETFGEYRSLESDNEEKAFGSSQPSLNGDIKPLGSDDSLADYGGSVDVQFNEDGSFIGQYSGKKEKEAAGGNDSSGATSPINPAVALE

Molecule: O=[N+]([O-])c1cccc2cn[nH]c12 [7NI, 7 nitroindazole, reference compound]
Axonal length, Away [1]: 407.6 +/− 5
Number of axons, Away [1]: 25.6 +/− 1.6
Axonal length, Towards [1]: 203.1 +/− 6, *
Number of axons, Towards [1]: 5 +/− 0.6, *
effect of inhibitor on L1Fc-induced switch of Sema3A repulsion to attraction [1]: did block L1Fc-mediated chemoattraction; also recorded: prevented the L1 Fc induced switching of Sema3A from repulsion to attraction
guidance index [1]: −1.6

Molecule: O=c1onc2cnc3ccccc3n12 [ODQ, 1H-(1,2,4)oxadiazolo(4,3-a)quinoxalin-1-one, reference compound]
Axonal length, Away [1]: 384.1 +/− 7
Number of axons, Away [1]: 25.2 +/− 1.8
Axonal length, Towards [1]: 206.9 +/− 8, *
Number of axons, Towards [1]: 5.1 +/− 0.5, *^
effect of inhibitor on L1Fc-induced switch of Sema3A repulsion to attraction [1]: reversion was prevented; also recorded: prevented the L1 Fc induced switching of Sema3A from repulsion to attraction
guidance index [1]: −1.6

Molecule: ASNKL (Description of the Artificial sequence Derived from the human amino-acid sequence of L1 Ig1 domain) [ASNKL120, five amino-acid peptide from L1 Ig1 domain]
conversion of Sema3A-induced chemorepulsion into attraction by peptide [1]: successfully converted Sema3A-induced chemorepulsion into attraction

Molecule: FASNKLGTAM (Description of the Artificial sequence Derived from the human amino-acid sequence of L1 Ig1 domain) [ten amino-acid peptide from L1 Ig1 domain]
conversion of Sema3A-induced chemorepulsion into attraction by peptide [1]: successfully converted Sema3A-induced chemorepulsion into attraction

binding to wild-type L1 expressed in COS cells [3]: bound to wild-type L1
B1: H210Q: L1Fc chimera with missense mutation H210Q in Ig domain 2 (protein)
chain: IQIPEEYEGHHVMEPPVITEQSPRRLVVFPTDDISLKCEASGKPEVQFRWTRDGVHFKPKEELGVTVYQSPHSGSFTITGNNSNFAQRFQGIYRCFASNKLGTAMSHEIRLMAEGAPKWPKETVKPVEVEEGESVVLPCNPPPSAEPLRIYWMNSKILHIKQDERVTMGQNGNLYFANVLTSDNHSDYICQAHFPGTRTIIQKEPIDLRVKATNSMIDRKPRLLFPTNSSSHLVALQGQPLVLECIAEGFPTPTIKWLRPSGPMPADRVTYQNHNKTLQLLKVGEEDDGEYRCLAENSLGSARHAYYVTVEAAPYWLHKPQSHLYGPGETARLDCQVQGRPQPEVTWRINGIPVEELAKDQKYRIQRGALILSNVQPSDTMVTQCEARNRHGLLLANAYIYVVQLPAKILTADNQTYMAVQGSTAYLLCKAFGAPVPSVQWLDEDGTTVLQDERFFPYANGTLGIRDLQANDTGRYFCLAANDQNNVTIMANLKVKDATQITQGPRSTIEKKGSRVTFTCQASFDPSLQPSITWRGDGRDLQELGDSDKYFIEDGRLVIHSLDYSDQGNYSCVASTELDVVESRAQLLVVGSPGPVPRLVLSDLHLLTQSQVRVSWSPAEDHNAPIEKYDIEFEDKEMAPEKWYSLGKVPGNQTSTTLKLSPYVHYTFRVTAINKYGPGEPSPVSETVVTPEAAPEKNPVDVKGEGNETTNMVITWKPLRWMDWNAPQVQYRVQWRPQGTRGPWQEQIVSDPFLVVSNTSTFVPYEIKVQAVNSQGKGPEPQVTIGYSGEDYPQAIPELEGIEILNSSAVLVKWRPVDLAQVKGHLRGYNVTYWREGSQRKHSKRHIHKDHVVVPANTTSVILSGLRPYSSYHLEVQAFNGRGSGPASEFTFSTPEGVPGHPEALHLECQSNTSLLLRWQPPLSHNGVLTGYVLSYHPLDEGGKGQLSFNLRDPELRTHNLTDLSPHLRYRFQLQATTKEGPGEAIVREGGTMALSGISDFGNISATAGENYSVVSWVPKEGQCNFRFHILFKALGEEKGGASLSPQYVSYNQSSYTQWDLQPDTDYEIHLFKERMFRHQMAVKTNGTGRVRLPPAGFATE
modifications: left off: a dimerising Fc or GST
switching of Sema3A repulsion to attraction by L1Fc chimera [1]: able to reverse Sema3A repulsion to attraction; also recorded: efficiently induce switching of Sema3A repulsion to attraction
effect of mutation on homophilic binding [2]: affect homophilic
binding to NP-1 expressing cells [4]: bound NP-1 expressing cells

binding to wild-type L1 expressed in COS cells [3]: bound to wild-type L1
B2: A426D: L1Fc chimera with missense mutation A426D in Ig domain 5 (protein)
chain: B1 chain with Q191H, A407D
modifications: left off: a dimerising Fc or GST
switching of Sema3A repulsion to attraction by L1Fc chimera [1]: able to reverse Sema3A repulsion to attraction; also recorded: efficiently induce switching of Sema3A repulsion to attraction; also recorded: switched Sema3A from repulsion to attraction to the same extent as wild type L1Fc
effect of mutation on homophilic binding [2]: reduce homophilic binding
effect of mutation on heterophilic binding [5]: reduce
binding to NP-1 expressing cells [4]: bound to NP-1 expressing cells

B3: E309K: L1Fc chimera with missense mutation E309K in Ig domain 3 (protein)
chain: B1 chain with Q191H, E290K
modifications: left off: a dimerising Fc or GST
switching of Sema3A repulsion to attraction by L1Fc chimera [1]: able to reverse Sema3A repulsion to attraction; also recorded: efficiently induce switching of Sema3A repulsion to attraction; also recorded: switched Sema3A from repulsion to attraction to the same extent as wild type L1Fc
effect of mutation on heterophilic binding [5]: affect
binding to NP-1 expressing cells [4]: bound NP-1 expressing cells
